Patent US20130178466A1, “Treatment of Microbial Infections” (BIOCOPEA LIMITED, priority 2009, published 2013)
Where two headings read alike, the source gives them in different places.

What was measured:
Influenza A/PR/8/34 = experiment: In vivo mouse challenge with lethal influenza (H1N1); set-up: species or system C57BL/6 female mice; conditions: H1N1-infected mice, single intra-peritoneal dose on day 3
Procedure: Protocol: Fifty (50) C57BL/6 female mice (6-7 weeks old), were divided into five (5) experimental groups containing ten (10) animals each. On day 1, animals received an intranasal lethal dose (50 μl total, 25 μl nostril) of Influenza A/PR/8/34 under halothane induced anaesthesia. On Day 3, animals received one intra-peritoneal injection (100-150 μl) of the test compound (360 μg ibuproxam (BC1048), 54 μg oxametacin (BC1002), 180 μg benoxaprofen (BC 1005), 189 μg benoxaprofen hydroxamate (BC1006)).
All animals were assessed daily for morbidity, weight loss and survival from Day 1 until at least Day 6. Morbidity variables (i.e. Body Condition, Posture, Activity, Piloerection, Respiration, Vocalisation, Ataxia and Oculo/Nasal Discharges) were recorded according to the following scale of severity: Normal (0), Mild (1), Laboured (2) and Severe/Cull-point (3).
Using standard techniques as described above, mice were infected with a H1N1 virus which was allowed to become established in each of the subjects. […] The weight loss of both treated and untreated mice was then determined.

IFN-γ [1] = experiment: IFN-γ levels in PBMC under LPS stimulation (ELISA); assay type: cell-based, human; set-up: production of IFN after LPS stimulation (in words): dose or concentration left out as unconfirmed
Procedure: (§1) The two mitogens that the inventors used to stimulate lymphocytes, and therefore assess immune function, were lipopolysaccharide (LPS) and Concanavalin A (Con A). LPS acts on B cells but not T cells, whereas Con A acts on T cells but not B cells. […] Peripheral Blood Mononuclear Cells (PMBC) were independently administered with each mitogen, LPS or Con A, and then treated with ibuproxam, benoxaprofen hydroxamate or pentoxifylline. […] Blood was collected in 6 ml vacutainers (green cap). Blood was processed within 2 h of collection. Materials used: Non-coagulated blood; FCS; RPMI-1640 media supplemented with L-Gln and P/S; PBS; sterile tips and pipettes; Sterile 15 ml Falcon; Sterile V-bottom 96-well plates with lids; Neubauer chamber; Trypan Blue solution; 70% IPA solution; Accuspin-Histopaque tubes (Sigma, A7054) Procedure: • 1. Dilute samples 1:1 in sterile PBS; • 2. Add 30 ml of diluted blood into an Accuspin-Histopaque tube (Sigma, A7054); • 3. Centrifuge at 800 rcf 15 min at room temperature (RT); • 4. After centrifugation, the red blood cells will remain at the bottom below the frit. The monocytes (PBMC) will be present on a layer above the frit, with the plasma on top; • 5. Collect the PBMC layer with a pipette into a fresh 15 ml Falcon tube and top up to 15 ml of PBS; • 6. Centrifuge at 250 rcf 10 min at RT; • 7. Discard the supernatant, flick the pellet and add another 10 ml of PBS; • 8. Centrifuge at 250 rcf 10 min at RT; • 9. Repeat steps 7 and 8; • 10. […] Count cells and make a 4×10^6 cell/ml suspension in complete medium. Add 100 μl of cell suspension per well in a V-bottom 96-well plate. Then add 50 μl of stimulant or vehicle in complete media, and 50 μl of drug or vehicle in complete media. Incubate the cells for 24 h at 37° C. 5% CO2; • 12. […] The values in the Table are expressed as the percentage value of the LPS only control. […] Standard deviation values (st error) are given underneath each value of expressed IFN-γ or TNF-α levels.

TNF-α [2] = experiment: TNF-α levels in PBMC under LPS stimulation (ELISA); assay type: cell-based, human; conditions: for effect on TNF under LPS stimulation (in words): LPS stimulated cells
Procedure: as §1

IFN-γ [3] = experiment: IFN-γ levels in PBMC under Con A stimulation (ELISA); assay type: cell-based, human; conditions: for effect against ConA-stimulated IFN production (in words): Con A stimulated cells
Procedure: (§2) The two mitogens that the inventors used to stimulate lymphocytes, and therefore assess immune function, were lipopolysaccharide (LPS) and Concanavalin A (Con A). LPS acts on B cells but not T cells, whereas Con A acts on T cells but not B cells.
(§3) Blood was collected in 6 ml vacutainers (green cap). Blood was processed within 2 h of collection.
(§4) Materials used: Non-coagulated blood; FCS; RPMI-1640 media supplemented with L-Gln and P/S; PBS; sterile tips and pipettes; Sterile 15 ml Falcon; Sterile V-bottom 96-well plates with lids; Neubauer chamber; Trypan Blue solution; 70% IPA solution; Accuspin-Histopaque tubes (Sigma, A7054)
(§5) Procedure: • 1. Dilute samples 1:1 in sterile PBS; • 2. Add 30 ml of diluted blood into an Accuspin-Histopaque tube (Sigma, A7054); • 3. Centrifuge at 800 rcf 15 min at room temperature (RT); • 4. After centrifugation, the red blood cells will remain at the bottom below the frit. The monocytes (PBMC) will be present on a layer above the frit, with the plasma on top; • 5. Collect the PBMC layer with a pipette into a fresh 15 ml Falcon tube and top up to 15 ml of PBS; • 6. Centrifuge at 250 rcf 10 min at RT; • 7. Discard the supernatant, flick the pellet and add another 10 ml of PBS; • 8. Centrifuge at 250 rcf 10 min at RT; • 9. Repeat steps 7 and 8; • 10. Discard the supernatant and resuspend the pellet in 1 ml of complete medium (RPMI-1640 10% FCS); • 11. Count cells and make a 4×10^6 cell/ml suspension in complete medium. Add 100 μl of cell suspension per well in a V-bottom 96-well plate. Then add 50 μl of stimulant or vehicle in complete media, and 50 μl of drug or vehicle in complete media. Incubate the cells for 24 h at 37° C. 5% CO2; • 12. After incubation, take 60 μl of cell supernatant to measure IFNγ and TNFα by ELISA (OptEIA human IFNγ, cat No. 555142 and human TNF, Cat No. 555212) following manufacturer's instructions (BD Biosciences).

TNF-α [4] = experiment: TNF-α levels in PBMC under Con A stimulation (ELISA); assay type: cell-based, human; conditions: for effect against ConA-stimulated TNF production (in words): Con A stimulated cells
Procedure: as §2, §3, §4, §5

[5] = LPS, 1 μM, percentage of LPS only control (100%)
[6] = LPS, 10 μM, percentage of LPS only control (100%)
[7] = LPS, 100 μM, percentage of LPS only control (100%)
[8] = no LPS, 1 μM, percentage of LPS only control
[9] = no LPS, 10 μM, percentage of LPS only control
[10] = no LPS, 100 μM, percentage of LPS only control
[11] = ConA, 1 μM, compared to 100% untreated cells under Con A stimulation
[12] = ConA, 10 μM, compared to 100% untreated cells under Con A stimulation
[13] = ConA, 100 μM, compared to 100% untreated cells under Con A stimulation

Compound	survival rate versus control, untreated mice (Influenza A/PR/8/34)	IFN-γ % signal (IFN-γ [1]; [5]) [%]	IFN-γ % signal (IFN-γ [1]; [6]) [%]	IFN-γ % signal (IFN-γ [1]; [7]) [%]	IFN-γ % signal (IFN-γ [1]; [8]) [%]	IFN-γ % signal (IFN-γ [1]; [9]) [%]	IFN-γ % signal (IFN-γ [1]; [10]) [%]	TNF-α % signal (TNF-α [2]; [5]) [%]	TNF-α % signal (TNF-α [2]; [6]) [%]	TNF-α % signal (TNF-α [2]; [7]) [%]	TNF-α % signal (TNF-α [2]; [8]) [%]	TNF-α % signal (TNF-α [2]; [9]) [%]	TNF-α % signal (TNF-α [2]; [10]) [%]	effect against ConA-stimulated IFN production (in words) (IFN-γ [3])	IFN-γ % signal (IFN-γ [3]; [11]) [%]	IFN-γ % signal (IFN-γ [3]; [12]) [%]	IFN-γ % signal (IFN-γ [3]; [13]) [%]	IFN-γ % signal (IFN-γ [3]; no ConA, 1 μM) [%]	IFN-γ % signal (IFN-γ [3]; no ConA, 10 μM) [%]	IFN-γ % signal (IFN-γ [3]; no ConA, 100 μM) [%]	other results
COc1ccc2c(c1)c(CC(=O)NO)c(C)n2C(=O)c1ccc(Cl)cc1 [BC1002, oxametacin]	higher survival rate than the control																				
CC(C(=O)O)c1ccc2oc(-c3ccc(Cl)cc3)nc2c1 (stereo not shown) [BC1005, benoxaprofen]	higher survival rate than the control																				
CC(C(=O)NO)c1ccc2oc(-c3ccc(Cl)cc3)nc2c1 (stereo not shown) [BC1006, benoxaprofen hydroxamate]	higher survival rate than the control	35.29	16.67	21.21	16.74	13.46	12.38	106.25	101.47	57.77	−2.29	−2.27	11.97	clear effects	98.35	33.81	3.78	3.76	2.80	1.82	maximal effect against TNF under LPS stimulation (TNF-α [2]; at the higher concentration): 41%; effect against ConA-stimulated TNF production (in words) (TNF-α [4]): clear effects; TNF-α % signal (TNF-α [4]; [11]): 83.37%; TNF-α % signal (TNF-α [4]; [12]): 38.65%; TNF-α % signal (TNF-α [4]; [13]): 51.50%; TNF-α % signal (TNF-α [4]; no ConA, 1 μM): 2.84%; TNF-α % signal (TNF-α [4]; no ConA, 10 μM): 1.62%; TNF-α % signal (TNF-α [4]; no ConA, 100 μM): 19.51%
CC(=O)CCCCn1c(=O)c2c(ncn2C)n(C)c1=O [BC1042, pentoxifylline]	higher survival rate than the control	102.11	98.28	40.73	3.98	1.48	2.03	113.04	107.28	114.60	1.15	−2.45	−0.80	little effect	108.10	97.98	92.61	1.13	0.42	0.58	production of IFN after LPS stimulation (in words) (IFN-γ [1]): less pronounced than ibuproxam; effect on TNF under LPS stimulation (in words) (TNF-α [2]): less of an effect; effect against ConA-stimulated TNF production (in words) (TNF-α [4]): little effect; TNF-α % signal (TNF-α [4]; [11]): 101.46%; TNF-α % signal (TNF-α [4]; [12]): 102.31%; TNF-α % signal (TNF-α [4]; [13]): 103.71%; TNF-α % signal (TNF-α [4]; no ConA, 1 μM): 1.11%; TNF-α % signal (TNF-α [4]; no ConA, 10 μM): −2.37%; TNF-α % signal (TNF-α [4]; no ConA, 100 μM): −0.77%
CC(C)Cc1ccc(C(C)C(=O)NO)cc1 (stereo not shown) [BC1048, ibuproxam]	higher survival rate than the control	89.21	96.62	−1.28	−4.14	−3.67	−6.29	105.78	105.67	109.93	3.14	0.48	−1.28	modest effect	94.90	97.25	78.18	−0.68	−0.61	−1.04	production of IFN after LPS stimulation (in words) (IFN-γ [1]; highest concentration): completely blocks; effect on TNF under LPS stimulation (in words) (TNF-α [2]): less of an effect; effect against ConA-stimulated TNF production (in words) (TNF-α [4]): modest effect; TNF-α % signal (TNF-α [4]; [11]): 109.64%; TNF-α % signal (TNF-α [4]; [12]): 106.74%; TNF-α % signal (TNF-α [4]; [13]): 79.25%; TNF-α % signal (TNF-α [4]; no ConA, 1 μM): 3.08%; TNF-α % signal (TNF-α [4]; no ConA, 10 μM): 0.48%; TNF-α % signal (TNF-α [4]; no ConA, 100 μM): −1.25%
